Data: the supplement of paper PMC11451515

Test system: P12-Ichikawa
Test: cell viability relative to DMSO control; higher = less cytotoxic
Details: 48 h
How it was run: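 Library compounds in DMSO were pin-dosed in an 11-point threefold series (47 μM to 0.79 nM) onto leukemia cells in 1536-well plates (5 μl). Plates held 500 cells/well of NOMO1 or SEM or 1000 cells/well of P12-Ichikawa, each adapted for at least four passages in each medium. Luminescence was read with CellTiter-Glo One after 48 h at 37°C. Viability means the per-plate percentage relative to DMSO wells, using cell-free wells as background.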

CCN(CC)CCCCNc1ncc2c(n1)N(C)C(=O)N(c1c(Cl)c(OC)cc(OC)c1Cl)C2
cell viability [%]
Details | HPLM + 10% dialyzed FBS | RPMI 5 mM glucose + 10% dialyzed FBS
0.000781 µM | 118 | 120
0.00234 µM | 121 | 110
0.00702 µM | 120 | 122
0.0211 µM | 118 | 119
0.0632 µM | 117 | 120
0.19 µM | 115 | 117
0.569 µM | 113 | 106
1.71 µM | 121 | 103
5.12 µM | 114 | 121
15.4 µM | 105 | 90.9
46.1 µM | 11.8 | 22.8
